ChEMBL document CHEMBL1135250, “Identification of a novel, orally bioavailable histamine H(3) receptor antagonist based on the 4-benzyl-(1H-imidazol-4-yl) template” (Bioorg Med Chem Lett, 2002)
Each block holds one molecule with its values, some of them ahead of it.

Tests used:
[1] = target: Histamine H3 receptor (Cavia porcellus) (UniProt Q9JI35); experiment: Compound was evaluated for its inhibitory activity against Histamine H3 receptor of guinea pig brain membrane at a concentration of 1 ug/mL
Sequence of Histamine H3 receptor (Cavia porcellus) (Q9JI35 whole entry): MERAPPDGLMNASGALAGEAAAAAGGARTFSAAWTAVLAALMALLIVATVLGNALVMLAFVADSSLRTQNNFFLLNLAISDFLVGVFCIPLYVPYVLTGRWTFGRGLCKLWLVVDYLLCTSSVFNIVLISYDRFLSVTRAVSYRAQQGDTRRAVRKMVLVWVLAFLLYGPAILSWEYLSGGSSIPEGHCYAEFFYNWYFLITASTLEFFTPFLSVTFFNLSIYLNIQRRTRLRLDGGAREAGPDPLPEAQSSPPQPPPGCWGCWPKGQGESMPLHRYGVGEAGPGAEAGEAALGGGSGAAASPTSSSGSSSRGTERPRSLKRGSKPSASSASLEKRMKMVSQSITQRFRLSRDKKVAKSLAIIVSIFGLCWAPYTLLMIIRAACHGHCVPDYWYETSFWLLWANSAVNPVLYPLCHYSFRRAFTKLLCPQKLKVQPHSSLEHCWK

Histamine H3 receptor = Histamine H3 receptor (Cavia porcellus, UniProt Q9JI35); experiment: (§1) Compound was evaluated for its binding affinity against Histamine H3 receptor of guinea pig brain membrane
Sequence of Histamine H3 receptor (Q9JI35 whole entry): as above

[2] = Compound at a dose 3 mg/kg was administered to monkey and was evaluated for half life after administration into monkey at 3 mg/kg; type: ADME, organism-based; conditions: cercopithecidae, in vivo
[3] = Antagonistic activity towards dopamine uptake was calculated; type: functional
[4] = Compound at a dose 10 mg/kg was administered to rat and was evaluated for bioavailability after administration into rat at 10 mg/kg; conditions: in vivo, read-out: Bioavailabiility
[5] = Pharmacokinetic parameter Cmax was measured after administration into rat at 10 mg/kg; type: ADME, organism-based; parameters: dose 10 mg/kg; conditions: in vivo
Cercopithecidae = experiment: Pharmacokinetic parameter area under curve (AUC) was measured after administration into monkey at 3 mg/kg; conditions: in vivo
[6] = Pharmacokinetic parameter area under curve (AUC) was measured after administration into rat at 10 mg/kg; type: ADME, organism-based; parameters: dose 10 mg/kg; conditions: in vivo
[7] = Pharmacokinetic parameter Cmax was measured after administration into monkey at 3 mg/kg; type: ADME, organism-based; parameters: dose 3 mg/kg; conditions: cercopithecidae, in vivo, read-out: AUC
[8] = target: T1, Alpha-2A adrenergic receptor (Homo sapiens) (UniProt P08913); experiment: Antagonistic activity towards Alpha-2A adrenergic receptor was calculated; type: functional
T1 sequence (whole entry): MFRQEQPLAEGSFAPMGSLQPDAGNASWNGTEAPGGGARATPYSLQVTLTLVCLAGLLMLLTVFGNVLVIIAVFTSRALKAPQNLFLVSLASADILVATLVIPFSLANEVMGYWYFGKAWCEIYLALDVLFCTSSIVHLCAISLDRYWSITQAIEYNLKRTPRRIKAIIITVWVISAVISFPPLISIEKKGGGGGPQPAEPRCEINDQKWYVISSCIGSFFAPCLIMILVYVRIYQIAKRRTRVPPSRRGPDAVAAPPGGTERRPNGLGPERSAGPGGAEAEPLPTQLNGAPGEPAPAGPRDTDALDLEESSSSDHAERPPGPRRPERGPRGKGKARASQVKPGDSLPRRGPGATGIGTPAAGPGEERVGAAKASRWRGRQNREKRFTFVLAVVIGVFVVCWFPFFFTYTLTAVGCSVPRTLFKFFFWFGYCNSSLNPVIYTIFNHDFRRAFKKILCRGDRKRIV

[9] = target: Histamine H3 receptor (Cavia porcellus) (UniProt Q9JI35); experiment: as §1; conditions: concentration not given here
[10] = target: Histamine H3 receptor (Cavia porcellus) (UniProt Q9JI35); experiment: Compound was evaluated for its binding affinity against Histamine H3 receptor of guinea pig brain membrane, less then 50% inhibition when screened at 1 ug/mL
Cavia porcellus = experiment: Effective dose was reported after intravenous administration to guinea pig; type: functional
[11] = target: Histamine H3 receptor (Cavia porcellus) (UniProt Q9JI35); experiment: Compound was evaluated for its binding affinity against Histamine H3 receptor of guinea pig brain membrane less then 50% inhibition when screened at 1 ug/mL

Compound: O=C(Nc1ccc(Cc2c[nH]cn2)cc1)Nc1cc(Cl)cc(Cl)c1
- inhibition [1]: 36%

Compound: O=C(NCc1ccc(Cc2c[nH]cn2)cc1)NCc1cc(C(F)(F)F)cc(C(F)(F)F)c1
- Ki (Histamine H3 receptor): 90 nM

Compound: O=C(NCc1cccc(Cc2c[nH]cn2)c1)Nc1cc(Cl)cc(Cl)c1
- inhibition [1]: 33%

Compound: NC(=O)NCc1ccc(Cc2c[nH]cn2)cc1
- inhibition [10]: < 50%

Compound: N=C(NCc1ccc(Cl)cc1)c1ccc(Cc2c[nH]cn2)cc1
- ED50 (Cavia porcellus): 0.3 mg/kg

Compound: O=C(Nc1ccc(Cl)cc1)OCc1ccc(Cc2c[nH]cn2)cc1
- Ki (Histamine H3 receptor): 25 nM

Compound: CN(Cc1ccc(Cc2cnc[nH]2)cc1)C(=O)N(C)c1cc(Cl)cc(Cl)c1
- Ki (Histamine H3 receptor): 370 nM

Second part, led by results:

- Ki (Histamine H3 receptor): 430 nM
Compound: O=C(NCCc1ccccc1Cl)NCc1ccc(Cc2c[nH]cn2)cc1

- Ki (Histamine H3 receptor): 37 nM
Compound: O=C(Nc1ccccc1)OCc1ccc(Cc2c[nH]cn2)cc1

- half-life [2]: 4.4 h
- bioavailability [4]: 44%
- Cmax [5]: 1700 ng/mL
- AUC (Cercopithecidae): 12600 ng·h/mL
- AUC [6]: 18100 ng·h/mL
- Cmax [7]: 1700 ng/mL
- Concentration [8]: 207 nM
Compound: O=C(NCc1ccc(Cc2c[nH]cn2)cc1)Nc1cc(Cl)cc(Cl)c1
- Concentration [3]: 805 nM

- inhibition [9]: < 50%
Compound: O=C(NCc1ccc(Cc2c[nH]cn2)cc1)Nc1cnccn1

- Ki (Histamine H3 receptor): 3 nM
Compound: O=C(NCc1ccc(Cc2c[nH]cn2)cc1)Nc1cc(Cl)nc(Cl)c1

- Ki (Histamine H3 receptor): 270 nM
Compound: O=C(NCc1ccc(Cc2c[nH]cn2)cc1)Nc1cccnc1

- inhibition [11]: < 50%
Compound: O=C(NCc1ccccc1)NCc1ccc(Cc2c[nH]cn2)cc1
